Experimental data from patent US12605350B2, “Composition for preventing, ameliorating, or treating disease caused by nitration of tyrosine in proteins comprising tyrosine as effective component” (INDUSTRY-ACADEMIC COOPERATION FOUNDATION GYEONGSANG …, priority 2020, dated 2026).
“Also recorded” adds a separate entry of the source.

Experiments:
[1] = test system: high-fat diet mouse model of type 2 diabetes; experiment: insulin resistance test; type: in vivo; details: HFD+L-Tyr vs HFD; 6 hours fasting, insulin 0.75 U/kg i.p., 15-90 minutes
Experimental: Twenty-seven C57BL/6 male mice (3-week old) were acclimated to the breeding condition for 1 week. […] Blood glucose was measured every week.
Insulin was diluted with physiological saline to prepare 0.15 U/ml solution. Blood glucose of a mouse, which has been subjected to fasting for 6 hours, was measured, and the animal was intraperitoneally injected with insulin (0.75 U/bodyweight (kg)). After the intraperitoneal injection of insulin, blood glucose was measured at time points of 15, 30, 60, and 90 minutes. Insulin injection amount(μl)=Bodyweight(g)×5 Formula (2)

[2] = test system: glutamine synthetase (GS); experiment: activity of glutamine synthetase (GS) in lysate of cerebral motor cortex, endothelin-1 stroke model; type: in vivo, mouse; details: Tyr diet (905 mg/kg L-Tyr)
Experimental: The mouse was anesthetized by intraperitoneal injection of avertin as an anesthetic (0.5 ml/25 g of mouse bodyweight). Thereafter, endothelin-1 was injected (2 μg) to the cerebral motor cortex area (with bregma at the center, AP 1.5 mm, ML-1.5 mm, and DV 1.8 mm) by stereotaxic surgery. The injection was made at speed of 0.3 μl per minute. The needle was left for about 5 minutes after completing the injection so that endothelin-1 can be fully absorbed in animal tissues. After suturing the skin, the animal was allowed to recover in the original cage.
To a 96-well plate, 2 μl of lysate of cerebral motor cortex were added, and then adjusted to 50 μl by additionally adding 50 mM imidazole-HCl buffer solution (pH 6.8). After adding 50 μl of GS activity assay buffer solution (50 mM imidazole-HCl, pH 6.8, 25 mM L-glutamine, 12.5 mM hydroxylamine, 12.5 mM sodium arsenate, 1 mM MnCl2 and 0.08 mM ADP), the reaction was allowed to occur at 37° C. for 30 to 60 minutes.
Upon the completion of the reaction, γ-glutamylhydroxamate as a reference material was added to an empty well (0.391 to 25.0 mM). To the sample and reference material, 100 μl of reaction termination solution (90 mM FeCl3, 1.8 N HCl and 1.45% trichloroacetic acid) were added and absorbance at a wavelength of 560 nm was measured. Based on comparison with standard curve, GS activity was obtained for each sample. […]

[3] = test system: chronic immobilization stress group (STR); experiment: TST (tail suspension test) after chronic immobilization stress; type: in vivo, mouse; details: tyrosine-diet (181.2 mg/kg) vs normal diet, p<0.05
Experimental: The animal models were divided into two groups (i.e., normal group and stress group). The animal of stress group was individually brought by force to a restrainer for 2 hours every day (i.e., between 2 PM and 4 PM) so that it was applied with chronic immobilization stress for 15 days. Change in bodyweight and food intake amount were measured every other day. The normal group and stress group were divided again into a normal diet group and a tyrosine-supplemented diet group (181.2 mg/kg), and then fed. For TST (tail suspension test), the mouse was individually hung in a box with horizontal bar. To measure the immobile duration, animal movement was followed for 6 minutes.

[4] = test system: mouse model of epileptic seizure which has been induced to have seizure by kainic acid; experiment: immunohistochemistry of hippocampal area (CA1, CA3): neurons (NeuN) and microglia (Iba1) after kainic acid; type: in vivo; details: tyrosine diet
Experimental: Blood perfusion with PBS and PFA was carried out through animal heart, and the brain was removed and post-fixed in PFA for 15 hours or longer. After washing 3 times for 10 minutes with PBS, brain tissue specimen with thickness of 40 μm was obtained using a vibratome.
In IHC buffer solution (PBS containing 0.3% Triton X-100) in which 3% bovine serum albumin is dissolved, the above-obtained brain specimen was blocked for 1 hour at room temperature and then reacted at 4° C. for 15 hours or longer with a primary antibody (anti-NeuN (Millipore, MAB377, 1:500), anti-Ibal (Wako, 019-19741, 1:200)) (IHC buffer solution containing 3% BSA). After washing 3 times, each for 10 minutes, with the IHC buffer solution, it was reacted with a flurolabeled secondary antibody (anti-Mouse IgG Alexa Fluor 488 (Invitrogen, 1:1000), anti-Rabbit IgG AlexaFluor594 (Invitrogen, […])) for 2 hours at room temperature (IHC buffer solution containing 3% BSA). After washing 3 times, each for 10 minutes, with the IHC buffer solution, the specimen was fixed on a silane-coated glass slide. An anti-fade solution containing DAPI was added onto the specimen and then dried after covering with a cover glass. Signal density of an image photographed with a fluorescent microscope was analyzed by using Image J analysis program.

[5] = test system: mouse model of epileptic seizure which has been induced to have seizure by kainic acid; experiment: ROS/RNS in hippocampal tissues after kainic acid; type: in vivo; details: mouse survived after kainic acid, tyrosine diet vs ND
Experimental: Hippocampus in brain tissues was added with RIPA (containing proteinase/phosphatase inhibitor), in an amount of 100 μl per 10 mg of the tissues, and then lysed for 1 minute by using glass beads and a bullet blender. Supernatant was separated by centrifuge for 15 minutes at 12,000×g, 4° C., and, after 10-fold dilution with PBS, used for measurement of ROS/RNS. Concentration of ROS/RNS was measured by using Oxiselect ROS/RNS assay kit (Cell Biolabs) according to the recommended experimental protocol.

[6] = test system: chronic immobilization stress group (STR); experiment: SPT (sucrose preference test) after chronic immobilization stress; type: in vivo, mouse; details: tyrosine diet (181.2 mg/kg) compared to normal diet, p<0.01
Experimental: The animal models were divided into two groups (i.e., normal group and stress group). The animal of stress group was individually brought by force to a restrainer for 2 hours every day (i.e., between 2 PM and 4 PM) so that it was applied with chronic immobilization stress for 15 days. Change in bodyweight and food intake amount were measured every other day.
The normal group and stress group were divided again into a normal diet group and a tyrosine-supplemented diet group (181.2 mg/kg), and then fed.
For SPT (sucrose preference test), 0.1 M sucrose and water were provided for 48 hours so that the animals are habituated with them. After that, none of 0.1 M sucrose and water was provided for 24 hours, and then 0.1 M sucrose and water were provided again for 6 hours. Then, 0.1 M sucrose and water were moved to different positions for 3 hours.
After that, consumption amount of sucrose and water was measured, and the sugar preference was calculated in terms of the ratio of provided sucrose compared to total consumption amount.

| SMILES | blood glucose amount, insulin resistance test [1] | GS activity of the tissues (cerebral motor cortex) [2] | immobile duration [3] | activity of microglia in hippocampal area (CA1, CA3) [4] | number of the neuronal cells in hippocampal area (CA1, CA3) [4] | ROS/RNS amount in hippocampal tissues [5] | sugar preference [6] |
| --- | --- | --- | --- | --- | --- | --- | --- |
| N[C@@H](Cc1ccc(O)cc1)C(=O)O [L-tyrosine] | statistically significant decrease in blood glucose amount | – | – | – | – | – | – |
| N[C@@H](Cc1ccc(O)cc1)C(=O)O [tyrosine] | – | the activity can be maintained | statistically significant decrease in immobile duration | reduced; also recorded: significant decrease in the activity of microglia | maintained without a loss | reduced to the level of the control group; also recorded: statistically significant decrease in ROS/RNS amount | statistically significant increase in the sugar preference |
